# Test results taken from paper PMC8372404 (Frontiers in Neuroscience, 2021).
# Read-outs that look alike come from different tables or passages of the source.
# Tests used:
# [1] = system: [3H]-LCGA-17 binding site in rat brain membranes (putative α2δ); assay: [3H]-LCGA-17 radioligand competition binding assay
# Danio rerio [2] = assay: Novel tank test (NTT); assay type: in vivo; details: for NTT. Time spent in upper half of tank, Median: 10 min after injection, 5 min; for NTT. Time spent in upper half of tank, Median / NTT. Distance traveled, Median: exp group
# Description: (§1) Control groups were treated in parallel with vehicle alone. For drug injection, the fish were anesthetized briefly by placing them in 10°C water. The vehicle controls were tested in parallel.
# (§2) Behavioral testing was initiated 10 min after drug injection, starting with the novel tank test (NTT), followed immediately thereafter by the light–dark box (LDB) and the social preference test (SPT). The NTT was adapted from [Maximino et al. (2013)] with the behavior video-recorded and the data processed using EthoVision XT14 (Noldus). The distance traveled, speed, number of visits to the bottom, middle and top thirds of the aquarium, respectively, and the times spent in each of these zones during the initial 5 min in the tank were recorded. A decreased time spent at the surface of the NTT apparatus reflects a reduction in exploratory behavior or increased hiding motivation ([Sackerman et al., 2010]). The behavior in the LDB ([Maximino et al., 2011]) and SPT ([Parker et al., 2014]) was video recorded and processed using RealTimer (Open Science LCC, Russia). The fish were added to the center zone of a three-zone aquarium and allowed to adapt for 1–2 min before removal of the septa separating the center from the flanking zones. The time spent and the number of visits to the light and dark flanking zones and the latency to enter the lit zone were recorded during a 5-min session. Stress of fish is associated with increased time spent in the dark compartment (scototaxis) ([Maximino et al., 2011]). For the SPT, the residence time and the number of visits to the three equally sized zones (near the shoal, in the center zone of the aquarium, and near the wall opposite to the shoal) were assessed during a 5-min session. Increased shoal preference (shoaling reflex) is thought to represent a protective response to a predator ([Nguyen et al., 2014]). All behavioral testing was done in the light phase using 500 lux (NTT, LDB) or 200 lux (SPT) illumination.
# Danio rerio [3] = assay: Light–dark box (LDB); assay type: in vivo; details: for LDB. Time spent in lit compartment, Median: 5 min session, exp group; for LDB, effect on time spent in the lit compartment vs vehicle: most informative dosage, Figure 2C
# Description: as §1, §2
# Danio rerio [4] = assay: Social preference test (SPT); assay type: in vivo; details: for SPT. Time spent out of shoaling zone, Median: 5 min session, exp group; for SPT, effect on time spent out of the shoaling zone vs vehicle: most informative dosage, Figure 2D
# Description: as §1, §2
# [5] = competition of [3H]-LCGA-17 (16 nM) binding, rat brain membranes, Table S1
# [6] = rat brain membranes, result in words
# [7] = competition of [3H]-LCGA-17 binding to rat brain (cortical) membranes, text and Figure 3
molecule,measurement,setting,value
CCCN(CCC)C1CCc2ccc(O)cc2C1 (centres unmarked) [7-OH-DPAT],cross-reactivity with / competition at the [3H]-LCGA-17 binding site,[1],no cross-reactivity
same,IC50,[1]; [5],> 100 µM
CC(=O)[C@H]1CC[C@H]2[C@@H]3CC[C@H]4C[C@H](O)CC[C@]4(C)[C@H]3CC[C@]12C [Allopregnanolone],IC50,[1],> 100 µM
same,cross-reactivity with / competition at the [3H]-LCGA-17 binding site,[1],distinct
NC(N)=NCCCCN=C(N)N [Arcaine],IC50,[1]; [5],> 100 µM
same,cross-reactivity with / competition at the [3H]-LCGA-17 binding site,[1]; [6],no cross-reactivity
NCC(CC(=O)O)c1ccc(Cl)cc1 (centres unmarked) [Baclofen],IC50,[1]; [5],> 100 µM
same,cross-reactivity with / competition at the [3H]-LCGA-17 binding site,[1]; [6],no cross-reactivity
CC(C)(C)OC(=O)c1ncn2c1[C@@H]1CCCN1C(=O)c1c(Br)cccc1-2 [Bretazenil],IC50,[1],> 100 µM
same,cross-reactivity with / competition at the [3H]-LCGA-17 binding site,[1],distinct
COc1ccc(-n2nc3c4ccccc4[nH]cc-3c2=O)cc1 [CGS-9895],IC50,[1]; [5],> 100 µM
same,cross-reactivity with / competition at the [3H]-LCGA-17 binding site,[1]; [6],no cross-reactivity
CCCCCCN(CCCCCC)C(=O)Cc1c(-c2ccc(F)cc2)[nH]c2ccccc12 [FGIN-1-27],cross-reactivity with / competition at the [3H]-LCGA-17 binding site,[1],distinct
same,IC50,[1]; [5],> 100 µM
"NCCCC(=O)O [GABA, γ-aminobutyric acid]",cross-reactivity with / competition at the [3H]-LCGA-17 binding site,[1]; [6],no cross-reactivity
Fc1ccc(C(OCCN2CCN(CCCc3ccccc3)CC2)c2ccc(F)cc2)cc1 [GBR-12909],IC50,[1]; [5],> 100 µM
NCC1(CC(=O)O)CCCCC1 [Gabapentin],IC50,[1]; [7],~11 µM
same,IC50,"[1]; competition of [3H]-LCGA-17 binding to rat brain (cortical) membranes, text and Figure 3, listed as gabapentin",11 µM
COc1ccc(-c2ccc(=N)n(CCCC(=O)O)n2)cc1 [Gabazine],IC50,[1]; [5],> 100 µM
same,cross-reactivity with / competition at the [3H]-LCGA-17 binding site,[1]; [6],no cross-reactivity
"Oc1noc2c1CCNC2 [Gaboxadol (THIP), Gaboxadol]",IC50,[1],> 100 µM
same,cross-reactivity with / competition at the [3H]-LCGA-17 binding site,[1],distinct
N[C@@H](CCC(=O)O)C(=O)O [Glutamate],IC50,[1]; [5],> 100 µM
same,cross-reactivity with / competition at the [3H]-LCGA-17 binding site,[1]; [6],no cross-reactivity
NCC(=O)O [Glycine],IC50,[1],> 100 µM
same,cross-reactivity with / competition at the [3H]-LCGA-17 binding site,[1],no cross-reactivity
O=C(CCCN1CCC(O)(c2ccc(Cl)cc2)CC1)c1ccc(F)cc1 [Haloperidol],cross-reactivity with / competition at the [3H]-LCGA-17 binding site,[1]; [6],no cross-reactivity
CC(C(O)c1ccc(O)cc1)N1CCC(Cc2ccccc2)CC1 (centres unmarked) [Ifenprodil],IC50,[1]; [5],> 100 µM
O=C(c1ccc(F)cc1)C1CCN(CCn2c(=O)[nH]c3ccccc3c2=O)CC1 [Ketanserin],IC50,[1]; [5],> 100 µM
same,cross-reactivity with / competition at the [3H]-LCGA-17 binding site,[1]; [6],no cross-reactivity
N[C@@]1(C(=O)O)CC[C@H]2[C@H](C(=O)O)[C@H]21 [LY-354740],IC50,[1]; [5],> 100 µM
same,cross-reactivity with / competition at the [3H]-LCGA-17 binding site,[1]; [6],no cross-reactivity
Cn1ncnc1COc1nn2c(-c3c(F)cccc3F)nnc2cc1C1CCC1 [MK0343],IC50,[1]; [5],> 100 µM
same,cross-reactivity with / competition at the [3H]-LCGA-17 binding site,[1]; [6],distinct
NCc1cc(=O)[nH]o1 [Muscimol],cross-reactivity with / competition at the [3H]-LCGA-17 binding site,[1],no cross-reactivity
same,IC50,[1]; [5],> 100 µM
CN1CCC[C@H]1c1cccnc1 [Nicotine],IC50,[1],> 100 µM
same,cross-reactivity with / competition at the [3H]-LCGA-17 binding site,[1],no cross-reactivity
CCC(C)N(C)C(=O)c1cc2ccccc2c(-c2ccccc2Cl)n1 (centres unmarked) [PK-11195],IC50,[1]; [5],> 100 µM
CC(=O)[C@H]1CC[C@H]2[C@@H]3CC=C4C[C@@H](O)CC[C@]4(C)[C@H]3CC[C@]12C [Pregnenolone],IC50,[1]; [5],> 100 µM
C[C@@H](CN1CCC(Cc2ccccc2)CC1)[C@@H](O)c1ccc(O)cc1 [Ro-256981],IC50,[1]; [5],> 100 µM
same,cross-reactivity with / competition at the [3H]-LCGA-17 binding site,[1]; [6],no cross-reactivity
Cn1c2ccc(F)cc2c2c(C(=O)N3CCCC3)cn(-c3ccccc3)c(=O)c21 [SL 651498],IC50,[1]; [5],> 100 µM
same,cross-reactivity with / competition at the [3H]-LCGA-17 binding site,[1]; [6],distinct
O=C(N/N=C/c1ccccc1O)c1ccccc1O [Salicylidene salicylhydrazide],cross-reactivity with / competition at the [3H]-LCGA-17 binding site,[1],distinct
same,IC50,[1]; [5],> 100 µM
NCCCNCCCCNCCCN [Spermine],IC50,[1]; [5],> 100 µM
same,cross-reactivity with / competition at the [3H]-LCGA-17 binding site,[1]; [6],no cross-reactivity
O=C(CCCN1CCC2(CC1)C(=O)NCN2c1ccccc1)c1ccc(F)cc1 [Spiperone],cross-reactivity with / competition at the [3H]-LCGA-17 binding site,[1]; [6],no cross-reactivity
CCN1CCCC1CNC(=O)c1cc(S(N)(=O)=O)ccc1OC (centres unmarked) [Sulpiride],IC50,[1]; [5],> 100 µM
same,cross-reactivity with / competition at the [3H]-LCGA-17 binding site,[1]; [6],no cross-reactivity
CC1(C)CC(=O)c2c(SCCO)sc(-c3nccs3)c2C1 [TB21007],IC50,[1]; [5],> 100 µM
same,cross-reactivity with / competition at the [3H]-LCGA-17 binding site,[1]; [6],distinct
C[C@]12CC[C@@H](O)C[C@H]1CC[C@@H]1[C@@H]2CC[C@]2(C)[C@@H](C(=O)CO)CC[C@@H]12 [THDOC],cross-reactivity with / competition at the [3H]-LCGA-17 binding site,[1],distinct
same,IC50,[1]; [5],> 100 µM
Cc1ccc(-c2nc3ccc(C)cn3c2CC(=O)N(C)C)cc1 [Zolpidem],IC50,[1],> 100 µM
"COCCCC/C(=N\OCCN)c1ccc(C(F)(F)F)cc1 [fluvoxamine, Fluvoxamine]","NTT. Time spent in upper half of tank, Median",Danio rerio [2]; 5 mg/kg,41 s
same,"NTT. Distance traveled, Median",Danio rerio [2]; 5 mg/kg,1267 cm
same,"NTT. Time spent in upper half of tank, Median",Danio rerio [2]; 10 mg/kg,32 s
same,"NTT. Distance traveled, Median",Danio rerio [2]; 10 mg/kg,1313 cm
same,"NTT, effect on time spent in the upper half of the tank vs vehicle","Danio rerio [2]; most informative dosage, Figure 2A: LCGA peptides 10 mg/kg, fluvoxamine 5 mg/kg, diazepam 5 mg/kg",anxiolytic-like effect
same,"LDB. Time spent in lit compartment, Median",Danio rerio [3]; 5 mg/kg,118 s
same,"LDB. Time spent in lit compartment, Median",Danio rerio [3]; 10 mg/kg,94 s
same,"LDB, effect on time spent in the lit compartment vs vehicle",Danio rerio [3],Neither fluvoxamine nor the other LCGA peptides affected the behavior
same,"SPT. Time spent out of shoaling zone, Median",Danio rerio [4]; 5 mg/kg,90 s
same,"SPT. Time spent out of shoaling zone, Median",Danio rerio [4]; 10 mg/kg,84 s
same,"SPT, effect on time spent out of the shoaling zone vs vehicle",Danio rerio [4],failed to affect behavior
O=C(O)C1=CCNCC1 [isoguvacine],cross-reactivity with / competition at the [3H]-LCGA-17 binding site,[1]; [6],distinct
AspLysThrGlu (DKTE; printed: AspLysThrGlu) [LCGA-26],"NTT. Time spent in upper half of tank, Median",Danio rerio [2]; 1 mg/kg i.p.,58 s
same,"NTT. Distance traveled, Median",Danio rerio [2]; 1 mg/kg i.p.,1365 cm
same,"NTT. Time spent in upper half of tank, Median",Danio rerio [2]; 10 mg/kg,72 s
same,"NTT. Distance traveled, Median",Danio rerio [2]; 10 mg/kg,1445 cm
same,"LDB. Time spent in lit compartment, Median",Danio rerio [3]; 1 mg/kg i.p.,215 s
same,"LDB. Time spent in lit compartment, Median",Danio rerio [3]; 10 mg/kg,243 s
same,"SPT. Time spent out of shoaling zone, Median",Danio rerio [4]; 1 mg/kg i.p.,20 s
same,"SPT. Time spent out of shoaling zone, Median",Danio rerio [4]; 10 mg/kg,27 s
PheLeuProTyr (FLPY; printed: PheLeuProTyr) [LCGA-83],"NTT. Time spent in upper half of tank, Median",Danio rerio [2]; 1 mg/kg i.p.,73 s
same,"NTT. Distance traveled, Median",Danio rerio [2]; 1 mg/kg i.p.,1500 cm
same,"NTT. Time spent in upper half of tank, Median",Danio rerio [2]; 10 mg/kg,76 s
same,"NTT. Distance traveled, Median",Danio rerio [2]; 10 mg/kg,1589 cm
same,"LDB. Time spent in lit compartment, Median",Danio rerio [3]; 1 mg/kg i.p.,128 s
same,"LDB. Time spent in lit compartment, Median",Danio rerio [3]; 10 mg/kg,249 s
same,"LDB, effect on time spent in the lit compartment vs vehicle",Danio rerio [3],Neither fluvoxamine (5 mg/kg) nor LCGA-59 and LCGA-83 (10 mg/kg) affected the behavior
same,"SPT. Time spent out of shoaling zone, Median",Danio rerio [4]; 1 mg/kg i.p.,37 s
same,"SPT. Time spent out of shoaling zone, Median",Danio rerio [4]; 10 mg/kg,46 s
same,"SPT, effect on time spent out of the shoaling zone vs vehicle",Danio rerio [4],failed to affect behavior
TrpAspGlnVal (WDQV; printed: TrpAspGlnVal) [LCGA-59],"NTT. Time spent in upper half of tank, Median",Danio rerio [2]; 1 mg/kg i.p.,69 s
same,"NTT. Distance traveled, Median",Danio rerio [2]; 1 mg/kg i.p.,1730 cm
same,"NTT. Time spent in upper half of tank, Median",Danio rerio [2]; 10 mg/kg,74 s
same,"NTT. Distance traveled, Median",Danio rerio [2]; 10 mg/kg,1636 cm
same,"LDB. Time spent in lit compartment, Median",Danio rerio [3]; 1 mg/kg i.p.,74 s
same,"LDB. Time spent in lit compartment, Median",Danio rerio [3]; 10 mg/kg,87 s
same,"LDB, effect on time spent in the lit compartment vs vehicle",Danio rerio [3],Neither fluvoxamine (5 mg/kg) nor LCGA-59 and LCGA-83 (10 mg/kg) affected the behavior
same,"SPT. Time spent out of shoaling zone, Median",Danio rerio [4]; 1 mg/kg i.p.,52 s
same,"SPT. Time spent out of shoaling zone, Median",Danio rerio [4]; 10 mg/kg,88 s
same,"SPT, effect on time spent out of the shoaling zone vs vehicle",Danio rerio [4],failed to affect behavior
pregnenolone sulfate [PREGS],IC50,[1]; [7],> 100 µM
same,cross-reactivity with / competition at the [3H]-LCGA-17 binding site,[1]; [6],failed to compete
